29 compounds from patent US20200325109A1, “IMINO-UREA DERIVATIVES” (Lunan Pharmaceutical Group Corporation, priority 2017, published 2020) can be followed below.

Series [1] deals with T1, human indoleamine 2,3-dioxygenase (Homo sapiens, UniProt P14902).
T1 construct: made in house; host or cells: E. coli
In words: Determination of the activity for inhibiting indoleamine 2,3-dioxygenase and IC50. The following applies: purified human IDO, 200 μM L-tryptophan, 37° C., 60 minutes, pH 6.5. It is filed as biochemical.

The test system of series [2] is DC-stimulated T cell proliferation. In words: DC-stimulated T cell proliferation assay (MLR). It is filed as cell-based, human. The following applies: MTT, A570 nm, 72 hours. Here is the method: The human peripheral blood leukocyte layer was taken and diluted with same volume of 0.01 mol/L PBS. PBMC was routinely isolated with a lymphocyte separation medium, and the cell concentration was adjusted to 3×10^6 ml^−1 in a complete RPMI1640 medium; the cells were added to a 6-well plate, 3 ml per well, and cultured in a 5% CO2, 37° C. incubator for 2 hours, washed with PBS for 3 times to remove non-adherent cells, then added with a culture medium containing IL-4 (100 U/ml), GM-CSF (150 ng/ml) and TNF-α (500 U/ml), and then routinely cultured, the medium was changed for half every other day. After 8 days of culture, the cells were used for identification and experiment.
The human PBMC layer was separated by the method in the step 1. The macrophages were removed by the adherence method, the B cells were removed by the nylon wool fiber syringe method, and the obtained T cells were adjusted to a cell concentration of 1×10^6 cells/ml.
The mature DCs with a purity of 99% were centrifuged, added with RPMI1640 to adjust the cell concentration to 1×10^5, 4×10^4, 2×10^4/ml, and added to a 96-well plate, two wells for each concentration, 100 μl/well.
T cells were added to DCs of each of the above drug-added groups, 100 μl/well, cultured in a 5% CO2, 37° C. incubator for 72 hours; for each well, 100 μl of the culture solution was gently sucked out 6 hours before the end of the culture, and 10 μl of MTT (5 mg/ml) was added, further cultured in incubator for 6 hours, then 100 μl of 0.01 mol/L HCl-10% SDS was added, stood at 37° C. overnight, and the absorbance value (A570 nm) was determined by a microplate to show the T cell proliferation level.

Series [3] has as its system mice with Alzheimer (AD model). As to the kind of experiment: Morris water maze detection of behavioral changes in mice with Alzheimer. It is filed as in vivo. To be noted: for Number of stays / Time of stay: spatial probe test, sixth day. Here is the method: Mouse behavioral analysis was performed using a Morris water maze (Ethovision XT monitoring and analysis software, Morris water maze system, from Noldus, Netherlands). The water maze test process was divided into two parts, hidden platform acquisition test for consecutive 5 days, and spatial probe test on the sixth day, the mice were administered according to the test groups and the design doses before each test. The mice were trained 4 times a day, each time the mice were dived in different areas, the water maze was divided into areas 1, 2, 3 and 4 according to the south, east, north and west, and the platform was the 5th area located in the 4th area. […] The hidden platform acquisition test was used to detect the learning ability of mice, while the spatial probe test was used to detect the spatial memory ability of mice.
Using the statistical analysis software SPSS16.0, the escape latent period of the hidden platform acquisition test was analyzed by variance of multiple measures; and the swimming time in each quadrant and the number of crossing target in the spatial probe test were analyzed by one-way analysis of variance. The data were expressed as mean±standard deviation, and the significant level of difference was set as bilateral P=0.05.

For series [4] the following is noted: mouse, in vivo.
For series [5], the system named is LLC tumors. As to the kind of experiment: In vivo antitumor activity test, LLC tumors in mice. Set-up: Tumor inhibition rate: concentration or dose not given beside the values. To be noted: LLC tumors in C57BL6 mice, once per day, 21 days; for Tumor weight: CTX intraperitoneal 150 mg·kg^−1, compounds intragastric; for Tumor inhibition rate: from average tumor weight vs model group.

Molecules are shown by their SMILES.

T1 sequence (P14902 whole entry): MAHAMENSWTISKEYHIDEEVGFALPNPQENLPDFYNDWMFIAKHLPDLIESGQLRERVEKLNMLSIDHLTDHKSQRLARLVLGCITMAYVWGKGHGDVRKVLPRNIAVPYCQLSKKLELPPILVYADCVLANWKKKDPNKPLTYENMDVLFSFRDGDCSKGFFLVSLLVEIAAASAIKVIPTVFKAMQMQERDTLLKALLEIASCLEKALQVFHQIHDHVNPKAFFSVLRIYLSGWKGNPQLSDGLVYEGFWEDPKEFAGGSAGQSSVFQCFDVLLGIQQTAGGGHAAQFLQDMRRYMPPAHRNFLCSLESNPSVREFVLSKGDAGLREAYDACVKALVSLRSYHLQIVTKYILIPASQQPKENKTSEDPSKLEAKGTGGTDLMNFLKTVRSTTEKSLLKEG

The compound `N=C(N)NCCNc1nonc1/C(=N/O)Nc1ccc(F)c(Br)c1` [Example 3047] showed an IC50 in series [1] of 37 nM. The “T:DC (absorbance value)” value in series [2] (T:DC 10:1) is recorded as 0.864 ± 0.006^##※; in series [2] (T:DC 25:1), 0.834 ± 0.004^##※; in series [2] (T:DC 50:1), 0.825 ± 0.007^##※. In addition, the “Latent period for searching platform in hidden platform test” value (“Latent period for searching platform” for short) in series [3] (1st Day) is given as 52.3 ± 5.2 s; in series [3] (2nd Day), 44.0 ± 4.4 s; in series [3] (3th Day) it was 22.1 ± 4.5^##※ s; in series [3] (4th Day), 10.5 ± 5.7^##※ s; in series [3] (5th Day) it was 5.4 ± 6.0^##※※ s. Also, the Number of stays in series [3] (4th Area) was 13.0 ± 1.5^##※ times; in series [3] (5th Area (platform)), 3.8 ± 0.6^##※ times. The Time of stay in series [3] (4th Area) is given as 25.9 ± 5.2^##※ s; in series [3] (5th Area (platform)), 5.9 ± 0.7^##※ s. The “Average body weight before test” value in series [4] is 22 ± 3.4 g. The Tumor weight in series [5] is 0.370 ± 0.209^##※ g. In addition, the Tumor inhibition rate in series [5] turned out to be 75.6%.

Regarding `N=C(N)NCCCNc1nonc1/C(=N/O)Nc1ccc(F)c(Br)c1` [Example 3048], the IC50 in series [1] stood at 20 nM.

Take `CNC(=N)NCCNc1nonc1/C(=N/O)Nc1ccc(F)c(Br)c1` [Example 3049]: in series [1], the 50% inhibitory concentration (IC50) came out at 22 nM.

In turn, `CC(C)(C)OC(=O)N=C(NCCNc1nonc1/C(=N/O)Nc1ccc(F)c(Br)c1)NC(=O)OC(C)(C)C` [Example 3051] yielded a half-maximal inhibitory concentration (IC50) in series [1] of 23 nM.

Turning to `CC(C)(C)OC(=O)N=C(N)NCCCNc1nonc1/C(=N/O)Nc1ccc(F)c(Br)c1` [Example 3053], in series [1], the IC50 turned out to be 16 nM.

With `NS(=O)(=O)NCCNc1nonc1C(=Nc1ccc(F)c(Br)c1)NO` [INCB024360, reference compound], the “T:DC (absorbance value)” value amounted to 0.830 ± 0.002 in series [2] (T:DC 10:1), 0.804 ± 0.004 in series [2] (T:DC 25:1) and 0.799 ± 0.003 in series [2] (T:DC 50:1). Also, the “Latent period for searching platform” value in series [3] (1st Day) came to 53.2 ± 2.3 s; in series [3] (2nd Day), 51.4 ± 4.8 s; in series [3] (3th Day), 38.6 ± 5.5 s; in series [3] (4th Day), 28.7 ± 3.9 s; in series [3] (5th Day) it was 19.9 ± 6.7 s. The Number of stays in series [3] (4th Area) worked out at 8.4 ± 1.0 times; in series [3] (5th Area (platform)) it was 2.1 ± 0.4 times. The results for the Time of stay in series [3] (4th Area) and in series [3] (5th Area (platform)) were 16.2 ± 2.4 s and 3.9 ± 0.7 s, respectively. The compound further displayed a Tumor weight in series [5] of 0.653 ± 0.178 g. This compound also came in with a Tumor inhibition rate in series [5] of 56.9%.

Turning to `CCC(=O)NC(=N)NCCNc1nonc1/C(=N/O)Nc1ccc(F)c(Br)c1` [XSD3-052], the IC50 in series [1] came out at 343 nM.

In the case of `N=C(NCCNc1nonc1/C(=N/O)Nc1ccc(F)c(Br)c1)NS(=O)(=O)c1ccccc1` [XSD3-058], it took 57 nM to reach half-maximal inhibition in series [1] (IC50). Besides, the entries for the “T:DC (absorbance value)” value in series [2] (T:DC 10:1), in series [2] (T:DC 25:1) and in series [2] (T:DC 50:1) were 0.880 ± 0.003, 0.849 ± 0.002 and 0.831 ± 0.002, respectively. Also, the “Latent period for searching platform” value in series [3] (1st Day) is on record as 45.3 ± 3.7 s; in series [3] (2nd Day) it was 41.3 ± 3.2 s; in series [3] (3th Day) it was 25.4 ± 4.6 s; in series [3] (4th Day), 15.5 ± 4.9 s; in series [3] (5th Day) it was 7.3 ± 6.1 s. Further, the Number of stays in series [3] (4th Area) was found to be 13.3 ± 1.8 times; in series [3] (5th Area (platform)), 3.5 ± 0.9 times. Also, the Time of stay worked out at 25.2 ± 4.2 s in series [3] (4th Area) and 5.9 ± 0.6 s in series [3] (5th Area (platform)). The “body weight compared with the model group” value in series [4] was “no significant difference in body weight”. In addition, in series [5], the Tumor weight was 0.400 ± 0.112 g. This compound returned a Tumor inhibition rate in series [5] of 72.3%.

For the compound `N/C(=N\C(=O)C1CC1)NCCNc1nonc1/C(=N/O)Nc1ccc(F)c(Br)c1` [XSD3-065], in series [1], the concentration for half-maximal inhibition (IC50) turned out to be 118 nM.

Consider `N/C(=N\C(=O)C1CCC1)NCCNc1nonc1/C(=N/O)Nc1ccc(F)c(Br)c1` [XSD3-066], for which 132 nM corresponded to half-maximal inhibition in series [1] (IC50).

In series [1], `N/C(=N\C(=O)C1CCCC1)NCCNc1nonc1/C(=N/O)Nc1ccc(F)c(Br)c1` [XSD3-067] displayed an IC50 of 142 nM.

With `N/C(=N\C(=O)C1CCCCC1)NCCNc1nonc1/C(=N/O)Nc1ccc(F)c(Br)c1` [XSD3-068], half-maximal inhibition in series [1] (IC50) required 539 nM.

In the case of `N/C(=N\C(=O)CC1CC1)NCCNc1nonc1/C(=N/O)Nc1ccc(F)c(Br)c1` [XSD3-069], it took 345 nM to reach half-maximal inhibition in series [1] (IC50).

For `N/C(=N/C(=O)CC1CCC1)NCCNc1nonc1/C(=N/O)Nc1ccc(F)c(Br)c1` [XSD3-070], in series [1], the IC50 came out at 345 nM.

In series [1], `N/C(=N\C(=O)CC1CCCCC1)NCCNc1nonc1/C(=N/O)Nc1ccc(F)c(Br)c1` [XSD3-072] displayed an IC50 of 502 nM.

In series [1], `N/C(=N\S(=O)(=O)c1ccccc1)NCCCNc1nonc1/C(=N/O)Nc1ccc(F)c(Br)c1` [XSD3-074] registered an IC50 of 63 nM.

`N/C(=N\C(=O)C1CCCCC1)NCCCNc1nonc1/C(=N/O)Nc1ccc(F)c(Br)c1` [XSD3-078]: in series [1], the IC50 worked out at 145 nM.

Regarding `N/C(=N\C(=O)C1CCC1)NCCCNc1nonc1/C(=N/O)Nc1ccc(F)c(Br)c1` [XSD3-079], the IC50 in series [1] turned out to be 95 nM. Moreover, the entries for the “T:DC (absorbance value)” value in series [2] (T:DC 10:1), in series [2] (T:DC 25:1) and in series [2] (T:DC 50:1) were 0.876 ± 0.004, 0.850 ± 0.003 and 0.837 ± 0.004, respectively. Moreover, the “Latent period for searching platform” value in series [3] (1st Day) was found to be 40.5 ± 5.5 s; in series [3] (2nd Day), 39.3 ± 44 s; in series [3] (3th Day), 20.3 ± 4.2 s; in series [3] (4th Day), 17.7 ± 5.2 s; in series [3] (5th Day) it was 9.9 ± 5.2 s. Besides, the figures for the Number of stays in series [3] (4th Area) and in series [3] (5th Area (platform)) were 14.4 ± 1.3 times and 3.9 ± 0.5 times, respectively. Besides, the Time of stay in series [3] (4th Area) was determined as 26.7 ± 3.3 s; in series [3] (5th Area (platform)), 5.8 ± 0.7 s. In addition, the “body weight compared with the model group” value in series [4] is “no significant difference in body weight”. This compound also had a Tumor weight in series [5] of 0.384 ± 0.092 g. The same compound yielded a Tumor inhibition rate in series [5] of 73.4%.

The compound `N/C(=N\C(=O)C1CCCC1)NCCCNc1nonc1/C(=N/O)Nc1ccc(F)c(Br)c1` [XSD3-080] displayed an IC50 in series [1] of 87 nM.

In turn, `N/C(=N\C(=O)CC1CC1)NCCCNc1nonc1/C(=N/O)Nc1ccc(F)c(Br)c1` [XSD3-081] gave an IC50 in series [1] of 89 nM.

On to `N/C(=N\C(=O)CC1CCC1)NCCCNc1nonc1/C(=N/O)Nc1ccc(F)c(Br)c1` [XSD3-082], for which the IC50 in series [1] came out at 101 nM.

Take `N/C(=N\C(=O)CC1CCCCC1)NCCCNc1nonc1/C(=N/O)Nc1ccc(F)c(Br)c1` [XSD3-084]: in series [1], the IC50 is 160 nM.

In series [1], `N/C(=N\S(=O)(=O)CC1CCCCC1)NCCCNc1nonc1/C(=N/O)Nc1ccc(F)c(Br)c1` [XSD3-088] had an IC50 of 72 nM.

With `N/C(=N\S(=O)(=O)CC1CCCCC1)NCCNc1nonc1/C(=N/O)Nc1ccc(F)c(Br)c1` [XSD3-089], the half-inhibitory concentration (IC50) in series [1] came out at 67 nM.

In series [1], `N/C(=N\C(=O)Cc1ccccc1)NCCNc1nonc1/C(=N/O)Nc1ccc(F)c(Br)c1` [XSD3-092] displayed a half-inhibitory concentration (IC50) of 399 nM.

Consider `N/C(=N\C(=O)Cc1ccc(Cl)cc1)NCCCNc1nonc1/C(=N/O)Nc1ccc(F)c(Br)c1` [XSD3-093-1], for which the half-inhibitory concentration (IC50) in series [1] came out at 56 nM.

Consider `N/C(=N\C(=O)Cc1ccc(F)cc1)NCCCNc1nonc1/C(=N/O)Nc1ccc(F)c(Br)c1` [XSD3-093-2], for which the IC50 in series [1] was 61 nM.

In series [1], `COc1ccc(CC(=O)/N=C(\N)NCCCNc2nonc2/C(=N/O)Nc2ccc(F)c(Br)c2)cc1` [XSD3-093-3] returned an IC50 of 76 nM.

As for `N/C(=N\C(=O)Cc1ccccc1)NCCCNc1nonc1/C(=N/O)Nc1ccc(F)c(Br)c1` [XSD3-093], the half-inhibitory concentration (IC50) in series [1] came out at 44 nM.

What is called IC50 is the concentration that inhibits the measured activity by half.
